Legend:
[1] = target: T1, Human PDGFRα, cytoplasmic domain (GST-PDGFRα) (Homo sapiens, UniProt P16234); assay: Human PDGFRα biochemical inhibition assay (off-chip Mobility Shift Assay)
T1 construct: made in house

[2] = target: T2, Human PDGFRβ, cytoplasmic domain (GST-PDGFRβ) (Homo sapiens, UniProt P09619); assay: Human PDGFRβ biochemical inhibition assay (off-chip Mobility Shift Assay)
T2 construct: made in house
In short: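 GST-tagged cytoplasmic domain (aa 557-1106) from baculovirus was incubated 1 h at room temperature with compound, CSKtide, ATP at Km and Mg²⁺ in HEPES buffer, pH 7.5. Phosphorylated and unphosphorylated peptide were separated by off-chip mobility shift, and the product ratio P/(P+S) gave percent inhibition.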

T2 sequence (P09619 with tags, fused parts or gaps): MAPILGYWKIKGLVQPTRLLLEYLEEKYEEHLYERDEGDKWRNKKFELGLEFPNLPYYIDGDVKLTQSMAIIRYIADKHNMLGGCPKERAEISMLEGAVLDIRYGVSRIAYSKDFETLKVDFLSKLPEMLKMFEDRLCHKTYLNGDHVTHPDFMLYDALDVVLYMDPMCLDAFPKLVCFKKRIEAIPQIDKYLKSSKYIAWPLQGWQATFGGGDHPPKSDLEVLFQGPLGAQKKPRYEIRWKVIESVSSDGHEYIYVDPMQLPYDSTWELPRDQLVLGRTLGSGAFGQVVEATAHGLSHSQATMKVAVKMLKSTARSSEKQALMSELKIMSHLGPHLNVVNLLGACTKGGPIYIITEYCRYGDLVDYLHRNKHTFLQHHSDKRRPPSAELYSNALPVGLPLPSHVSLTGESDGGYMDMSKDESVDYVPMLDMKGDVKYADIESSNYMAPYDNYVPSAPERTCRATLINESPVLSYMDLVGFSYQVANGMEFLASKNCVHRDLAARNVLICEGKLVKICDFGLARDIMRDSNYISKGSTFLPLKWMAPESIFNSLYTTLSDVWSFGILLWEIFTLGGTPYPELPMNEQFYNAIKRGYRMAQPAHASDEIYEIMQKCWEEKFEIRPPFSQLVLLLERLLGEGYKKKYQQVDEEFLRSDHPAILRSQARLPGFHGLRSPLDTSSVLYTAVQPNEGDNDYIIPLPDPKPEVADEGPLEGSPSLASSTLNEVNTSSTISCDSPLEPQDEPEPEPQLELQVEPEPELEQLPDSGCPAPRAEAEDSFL
T1 sequence (P16234 550-1089 T674I): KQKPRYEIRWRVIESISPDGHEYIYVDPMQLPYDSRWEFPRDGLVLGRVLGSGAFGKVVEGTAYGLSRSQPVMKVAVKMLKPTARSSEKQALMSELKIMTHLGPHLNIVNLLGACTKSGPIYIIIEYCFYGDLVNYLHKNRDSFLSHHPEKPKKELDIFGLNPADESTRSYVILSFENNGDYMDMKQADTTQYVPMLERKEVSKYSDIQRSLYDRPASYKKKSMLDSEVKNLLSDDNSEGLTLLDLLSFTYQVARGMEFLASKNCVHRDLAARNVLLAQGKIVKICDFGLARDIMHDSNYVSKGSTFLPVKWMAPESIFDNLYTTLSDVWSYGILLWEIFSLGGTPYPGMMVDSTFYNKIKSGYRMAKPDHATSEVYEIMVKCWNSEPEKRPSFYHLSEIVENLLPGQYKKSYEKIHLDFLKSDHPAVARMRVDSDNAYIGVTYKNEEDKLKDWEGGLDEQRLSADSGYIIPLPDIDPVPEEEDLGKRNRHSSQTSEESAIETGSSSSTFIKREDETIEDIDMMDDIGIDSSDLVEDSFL

IC50 [1] [nM] | IC50 [2] [nM] | Compound
< 300 | < 300 | CSc1ccc(C(=O)Nc2cccc([C@H](C)Nc3cnc4cnn(C)c4n3)c2)cc1C [Compound 222, (S)-3-methyl-N-(3-(1-((1-methyl-1H-pyrazolo[3,4-b]pyrazin-6-yl)amino)ethyl)phenyl)-4-(methylthio)benzamide]
< 300 | ≥ 1000 | Cc1cncc(NC(=O)c2cccc([C@H](C)Nc3cnc4cnn(C)c4n3)c2)c1 [Compound 744, (S)-3-(1-((1-methyl-H-pyrazolo[3,4-b]pyrazin-6-yl)amino)ethyl)-N-(5-methylpyridin-3-yl)benzamide]
< 300 | < 300 | C[C@H](Nc1cnc2cnn(C)c2n1)c1cccc(NC(=O)c2cc(C(C)(C)C)on2)c1 [Compound 143, (S)-5-(tert-butyl)-N-(3-(1-((1-methyl-1H-pyrazolo[3,4-b]pyrazin-6-yl)amino)ethyl)phenyl)isoxazole-3-carboxamide]
< 300 | ≥ 1000 | CCn1cc2ncc(N[C@@H](C)c3cc(NC(=O)Cc4ccc(C5CC5)cn4)ccc3C)nc2n1 [Compound 662, (S)-2-(5-cyclopropylpyridin-2-yl)-N-(3-(1-((2-ethyl-2H-pyrazolo[3,4-b]pyrazin-6-yl)amino)ethyl)-4-methylphenyl) acetamide]
< 300 | ≥ 1000 | CCn1cc2ncc(N[C@@H](C)c3cc(NC(=O)Cc4cnc(C)c(F)c4)ccc3F)nc2n1 [Compound 706, (S)-N-(3-(1-((2-ethyl-2H-pyrazolo[3,4-b]pyrazin-6-yl)amino)ethyl)-4-fluorophenyl)-2-(5-fluoro-6-methylpyridin-3-yl) acetamide]
300 to 1000 | ≥ 1000 | CCn1cc2ncc(N[C@@H](C)c3cccc(NC(=O)c4ccc5c(c4)CN(C)C5)c3)nc2n1 [Compound 449, (S)-N-(3-(1-((2-ethyl-2H-pyrazolo[3,4-b]pyrazin-6-yl)amino)ethyl)phenyl)-2-methylisoindoline-5-carboxamide]
300 to 1000 | 300 to 1000 | C[C@H](Nc1cnc2[nH]cc(-c3cnn(C)c3)c2n1)c1cccc(NC(=O)c2cnc(C(F)(F)F)s2)c1 [Compound 582, (S)-N-(3-(1-((7-(1-methyl-1H-pyrazol-4-yl)-5H-pyrrolo[2,3-b]pyrazin-2-yl)amino)ethyl)phenyl)-2-(trifluoromethyl) thiazole-5-carboxamide]
< 300 | < 300 | CCn1cc2ncc(N[C@@H](C)c3cccc(NC(=O)c4ccc(NC(C)C)c(C)c4)c3)nc2n1 [Compound 405, (S)-N-(3-(1-((2-ethyl-2H-pyrazolo[3,4-b]pyrazin-6-yl)amino)ethyl)phenyl)-4-(isopropylamino)-3-methylbenzamide]
< 300 | < 300 | CCn1cc2ncc(N[C@@H](C)c3cccc(NC(=O)c4cnc(F)c(C)c4)c3)nc2n1 [Compound 329, (S)-N-(3-(1-((2-ethyl-2H-pyrazolo[3,4-b]pyrazin-6-yl)amino)ethyl)phenyl)-6-fluoro-5-methylnicotinamide]
< 300 | < 300 | Cc1n[nH]c2ncc(N[C@@H](C)c3cccc(NC(=O)c4cnn(CCF)c4)c3)nc12 [Compound 544, (S)-1-(2-fluoroethyl)-N-(3-(1-((3-methyl-1H-pyrazolo[3,4-b]pyrazin-5-yl)amino)ethyl)phenyl)-1H-pyrazole-4-carboxamide]
< 300 | < 300 | Cc1ncc(C(=O)Nc2cccc([C@H](C)Nc3cnc4cnn(C)c4n3)c2)cc1C(F)(F)F [Compound 124, (S)-6-methyl-N-(3-(1-((1-methyl-1H-pyrazolo[3,4-b]pyrazin-6-yl)amino)ethyl)phenyl)-5-(trifluoromethyl) nicotinamide]
< 300 | < 300 | C[C@H](Nc1cnc2cnn(C)c2n1)c1cccc(NC(=O)c2cnc3cnn(C)c3c2)c1 [Compound 48, (S)-1-methyl-N-(3-(1-((1-methyl-1H-pyrazolo[3,4-b]pyrazin-6-yl)amino)ethyl)phenyl)-1H-pyrazolo[4,3-b] pyridine-6-carboxamide]
300 to 1000 | ≥ 1000 | CCn1cc2ncc(N[C@@H](C)c3cccc(NC(=O)Nc4ccc(NC)nc4)c3)nc2n1 [Compound 738, (S)-1-(3-(1-((2-ethyl-2H-pyrazolo[3,4-b]pyrazin-6-yl)amino)ethyl)phenyl)-3-(6-(methylamino)pyridin-3-yl)urea]
< 300 | < 300 | Cc1cncc(C(=O)Nc2cccc([C@H](C)Nc3cnc4ccc(Br)cc4n3)c2)c1 [Compound 39, (S)-N-(3-(1-((7-bromoquinoxalin-2-yl)amino)ethyl)phenyl)-5-methylnicotinamide]
300 to 1000 | ≥ 1000 | CCn1cc2ncc(N[C@@H](C)c3cc(NC(=O)Cc4ccc(C(C)(C)F)cn4)ccc3C)nc2n1 [Compound 690, (S)-N-(3-(1-((2-ethyl-2H-pyrazolo[3,4-b]pyrazin-6-yl)amino)ethyl)-4-methylphenyl)-2-(5-(2-fluoropropan-2-yl)pyridin-2-yl)acetamide]
< 300 | < 300 | Cc1cc(C(=O)Nc2ccc(F)c([C@H](C)Nc3cnc4cnn(C)c4n3)c2)cnc1NC(C)C [Compound 232, (S)-N-(4-fluoro-3-(1-((1-methyl-1H-pyrazolo[3,4-b]pyrazin-6-yl)amino)ethyl)phenyl)-6-(isopropylamino)-5-methylnicotinamide]
< 300 | < 300 | CCn1cc2ncc(N[C@@H](C)c3cccc(NC(=O)c4cnc5ccccc5c4)c3)nc2n1 [Compound 57, (S)-N-(3-(1-((2-ethyl-2H-pyrazolo[3,4-b]pyrazin-6-yl)amino)ethyl)phenyl)quinoline-3-carboxamide]
< 300 | < 300 | Cc1c[nH]c2ncc(N[C@@H](C)c3cccc(NC(=O)c4cnn(CCF)c4)c3)nc12 [Compound 575, (S)-1-(2-fluoroethyl)-N-(3-(1-((7-methyl-5H-pyrrolo[2,3-b]pyrazin-2-yl)amino)ethyl)phenyl)-1H-pyrazole-4-carboxamide]
< 300 | < 300 | CCn1cc2ncc(N[C@@H](C)c3cccc(NC(=O)c4cnc5c(c4)CCCO5)c3)nc2n1 [Compound 56, (S)-N-(3-(1-((2-ethyl-2H-pyrazolo[3,4-b]pyrazin-6-yl)amino)ethyl)phenyl)-3,4-dihydro-2H-pyrano[2,3-b] pyridine-6-carboxamide]
≥ 1000 | ≥ 1000 | CCn1cc2ncc(N[C@@H](C)c3cc(NC(=O)Cc4cc(CN5CCCC5)c(C)cn4)ccc3C)nc2n1 [Compound 727, (S)-N-(3-(1-((2-ethyl-2H-pyrazolo[3,4-b]pyrazin-6-yl)amino)ethyl)-4-methylphenyl)-2-(5-methyl-4-(pyrrolidin-1-ylmethyl)pyridin-2-yl)acetamide]
< 300 | < 300 | CCn1cc2ncc(N[C@@H](C)c3cc(NC(=O)c4ccc(F)c(Cl)c4)ccc3C)nc2n1 [Compound 507, (S)-3-chloro-N-(3-(1-((2-ethyl-2H-pyrazolo[3,4-b]pyrazin-6-yl)amino)ethyl)-4-methylphenyl)-4-fluorobenzamide]
< 300 | < 300 | C=Cc1ccc(C(=O)Nc2cccc([C@H](C)Nc3cnc4cnn(C)c4n3)c2)cc1C [Compound 246, (S)-3-methyl-N-(3-(1-((1-methyl-1H-pyrazolo[3,4-b]pyrazin-6-yl)amino)ethyl)phenyl)-4-vinylbenzamide]
< 300 | < 300 | Cc1cc(C(=O)Nc2ccc(F)c([C@H](C)Nc3cnc4cnn(C)c4n3)c2)ccc1CN1CCN(C)CC1 [Compound 228, (S)-N-(4-fluoro-3-(1-((1-methyl-1H-pyrazolo[3,4-b]pyrazin-6-yl)amino)ethyl)phenyl)-3-methyl-4-((4-methylpiperazin-1-yl)methyl)benzamide]
< 300 | 300 to 1000 | CCOc1ccc(C(=O)Nc2cccc([C@H](C)Nc3cnc4cn(CC)nc4n3)c2)cn1 [Compound 286, (S)-6-ethoxy-N-(3-(1-((2-ethyl-2H-pyrazolo[3,4-b]pyrazin-6-yl)amino)ethyl)phenyl) nicotinamide]
< 300 | < 300 | C[C@H](Nc1cnc2cn(CC3CCC3)nc2n1)c1cc(NC(=O)c2cnc(C(F)(F)F)s2)ccc1F [Compound 390, (S)-N-(3-(1-((2-(cyclobutylmethyl)-2H-pyrazolo[3,4-b]pyrazin-6-yl)amino)ethyl)-4-fluorophenyl)-2-(trifluoromethyl)thiazole-5-carboxamide]
< 300 | < 300 | CCn1cc2ncc(N[C@@H](C)c3cccc(NC(=O)c4cnc(C(F)F)s4)c3)nc2n1 [Compound 319, (S)-2-(difluoromethyl)-N-(3-(1-((2-ethyl-2H-pyrazolo[3,4-b]pyrazin-6-yl)amino)ethyl)phenyl)thiazole-5-carboxamide]
< 300 | < 300 | Cc1cncc(C(=O)Nc2cccc([C@H](C)Nc3cnc4ccc(C5CC5)cc4n3)c2)c1 [Compound 41, (S)-N-(3-(1-((7-cyclopropylquinoxalin-2-yl)amino)ethyl)phenyl)-5-methylnicotinamide]
300 to 1000 | ≥ 1000 | Cc1cncc(C(=O)Nc2cccc([C@H](C)Nc3cnc4cn(CCN5CCOCC5)nc4n3)c2)c1 [Compound 278, (S)-5-methyl-N-(3-(1-((2-(2-morpholinoethyl)-2H-pyrazolo[3,4-b]pyrazin-6-yl)amino)ethyl)phenyl) nicotinamide]
< 300 | < 300 | CCn1cc2ncc(N[C@@H](C)c3cc(NC(=O)c4cnc(C#N)c(C)c4)ccc3F)nc2n1 [Compound 306, (S)-6-cyano-N-(3-(1-((2-ethyl-2H-pyrazolo[3,4-b]pyrazin-6-yl)amino)ethyl)-4-fluorophenyl)-5-methylnicotinamide]

— patent US20230102554A1 (GB002, INC., priority 2019, published 2023)
